Reference: ChEMBL document CHEMBL1130677, “Growth inhibitory effect of juvenile hormone analogues on epimastigotes of Trypanosoma cruzi” (Bioorg Med Chem Lett, 1998)
Values after ≈ are worked out from the molar mass of the structure shown.

tested on: Trypanosoma cruzi; assay: Growth inhibitory activity against Trypanosoma cruzi (Epimastigote); type: functional, organism-based

Row | Structure (SMILES) | IC50 [µg/mL]
1 | C#CCOC(=O)NCCOc1ccc(C[C@@H]2CCCC[C@H]2O)cc1 | > 100
2 | COC(=O)NCCOc1ccc(C[C@@H]2CCCC[C@H]2O)cc1 | > 200
3 | CC(C)OC(=O)NCCOc1ccc(C[C@@H]2CCCC[C@H]2O)cc1 | 194 (≈ 578 µM)
4 | CC(=O)N1CCN(c2ccc(OC[C@H]3CO[C@](Cn4ccnc4)(c4ccc(Cl)cc4Cl)O3)cc2)CC1 [KETOCONAZOLE] | 1.7 (≈ 3.2 µM)

Further lines, results first:

Row | IC50 [µg/mL] | Structure (SMILES)
5 | 145 (≈ 384 µM) | CC(C)OC(=O)NCCOc1ccc(C[C@@H]2CCCCC23OCCO3)cc1
6 | > 200 | CCCOC(=O)NCCOc1ccc(C[C@@H]2CCCCC23OCCO3)cc1
7 | 62.3 (≈ 194 µM) | CCOC(=O)NCCOc1ccc(C[C@@H]2CCCC[C@H]2O)cc1
8 | 45.7 (≈ 136 µM) | CCCOC(=O)NCCOc1ccc(C[C@@H]2CCCC[C@@H]2O)cc1
9 | 37.3 (≈ 111 µM) | CCCOC(=O)NCCOc1ccc(C[C@@H]2CCCC[C@H]2O)cc1
